The data set in a line: in vitro. It is filed as in vitro ADME. The settings on record: plasma. How it is done: The plasma protein binding (PPB) and blood plasma ratio (BPR) are crucial parameters influencing the drug distribution and elimination in plasma. The PPB profile of 25a was evaluated by equilibrium dialysis, a classic method to assess the interactions of small molecules with proteins. The PPB of 25a was tested at 50, 500, and 2500 ng/mL (Table 7). […] When considering the allometric scaling of PK parameters, the species difference of protein binding between humans and rats should be considered.
The plasma protein binding (PPB) ratio of 25a was assessed via equilibrium dialysis in SD rats and human plasma. Four hundred microliters of plasma containing 50, 500, or 2500 ng/mL 25a were loaded into the dialysis bags (plasma side), and the bags were placed into tubes containing 4 mL of the dialysis buffer (buffer side). The tubes were then rotated at approximately 100 rpm in a humidified incubator with 5% CO2 at 37 ± 1 °C for 5 h.
After the 5 h dialysis, aliquots of 50 μL samples were taken from both the buffer and the plasma sides. An equal volume of the opposite blank matrix (buffer or plasma) was added to each sample to reach a final volume of 100 μL with a volume ratio of plasma to dialysis buffer at 1:1 (v/v). […] The PPB ratio (%) was calculated by PPB% = 100% × (1 − Conc.buffer side/Conc.plasma side).

This note sets out measurements from publication PMC9027532, “Preclinical Pharmacokinetic Studies of a Novel Diuretic Inhibiting Urea Transporters” (Molecules, 2022).

In the case of `CC(=O)CC(c1ccccc1)c1c(O)c2ccccc2oc1=O` (stereo not shown) [warfarin], the fraction unbound (in general, free concentration divided by total concentration) at 5 h was 0.015.
